Test results reported in US4465851A, “Guanidinocyclohexanecarboxylic acid derivatives” (Nippon Chemiphar Co., Ltd., priority 1981, dated 1984).
Where “and” joins values, the source holds several entries; their conditions need not be identical. Identical values can stand only once. Counter-ions that a name gives are not always drawn. Like-named read-outs stand apart in the source and are kept apart here. Values belong to the molecule of their own block, whether it stands above or below them.

What was measured:
Plasmin [1] = details: J. Med. Chem., Vol. 15, No. 3, 247 (1972); cited from earlier work
Plasma kallikrein = Plasma kallikrein (Homo sapiens, UniProt P03952); test: Inhibition of plasma kallikrein (TAMe hydrolysis); assay type: biochemical; details: TAMe substrate; read-out: Concentration for 50% inhibition (IC50), plasma kallikrein
Method: (§1) Inhibitory effects on the TAMe(N^α -tosyl-L-arginine methyl ester) hydrolytic activity of trypsin, plasmin, plasma kallikrein and thrombin were estimated by Hesterin's method modified by Roberts. Inhibition of the BAEe(N^α -benzoyl-L-arginine ethyl ester) hydrolytic activity of pancreas kallikrein was determined by Hesterin's method after incubation at 37° C. for 30 minutes in a 0.1M borate buffer, pH 8.0. Inhibitory effects on urokinase were determined by the chromotropic acid method after incubation of 60 iu of urokinase with 10 mM AGLMe(acetylglycyl-L-lysine methyl ester) at 37° C. for 30 minutes in a 0.06M phosphate buffer, pH 7.5, containing 0.09M NaCl. Inhibition of chymotrypsin was determined by Hesterin's method after incubation with 15 mM ATE (N^α -acetyl-L-tyrosine ethyl ester) for 30 minutes at 37° C. in a 0.1M borate buffer, pH 8.0.

guinea pigs ilea [2] = test: Anti-acetylcholine action; design: species or system guinea pig; details: Cavia porcellus, read-out: Anti-acetylcholine effect inhibition of contraction
Excerpt: (§2) Anti-acetylcholine and anti-histamine effects of the present compounds were examined using guinea pigs ilea by the usual method.

[3] = tested on: ileum of each sensitized guinea pig; test: Schultz-Dale reaction; details: Cavia porcellus, read-out: Inhibition of contraction (Schultz-Dale reaction)
Method: Male guinea pigs were sensitized with bovine serum albumin by Freund's complete adjuvant method. After a lapse of 10 days, the animals were sensitized once more as described above. After two more weeks, an ileum of each sensitized guinea pig was removed and used for experiment. The ileum was equipped in a magnus tube containing each test sample, and 500 μg of bovine serum albumin was added. The contraction of the ileum was determined.

[4] = Active systemic anaphylaxis in mice; assay type: in vivo; details: oral, survivors of 5 mice
Method: Egg albumin (10 mg) was mixed with 10 ml Bordetella pertusis vaccine (Takeda Chemical Industries, Ltd.), and the mixture was intraperitoneally injected into mice in an amount of 10 ml/kg. 22 days later, active systemic anaphylaxis was induced by intravenous injection of egg albumin dissolved in saline in an amount of 3 mg/10 ml/kg. A test sample suspended in 5% gum arabic was administered orally to the sensitized mice 1 hour prior to the antigen challenge. 24 hours after the antigen challenge, the number of survived mice was counted.

Chymotrypsin = Chymotrypsin (Bos taurus, UniProt P00766); test: Inhibition of chymotrypsin (ATE hydrolysis); assay type: biochemical; details: 15 mM ATE, 30 minutes, 37° C., pH 8.0; read-out: Concentration for 50% inhibition (IC50), chymotrypsin
Method: as §1

Pancreas kallikrein = Pancreas kallikrein (Sus scrofa, UniProt P00752); test: Inhibition of pancreas kallikrein (BAEe hydrolysis); assay type: biochemical; details: BAEe substrate, 37° C., 30 minutes, pH 8.0; read-out: Concentration for 50% inhibition (IC50), pancreas kallikrein
Method: as §1

Thrombin = Thrombin (Homo sapiens, UniProt P00734); test: Inhibition of thrombin (TAMe hydrolysis); assay type: biochemical; details: TAMe substrate; read-out: Concentration for 50% inhibition (IC50), thrombin
guinea pigs ilea [5] = test: Anti-histamine action; design: species or system guinea pig; details: Cavia porcellus, read-out: Anti-histamine effect inhibition of contraction
Excerpt: as §2

Acute toxicity in rats = details: rat, in vivo, po
Method: (§3) Normal ICR strain mice (female: 22 g, male: 24 g) or Wister strain rats (female: 90 g, male: 95 g) were used. A test compound was orally given using a gastric sonde. […] The LD50 values were calculated by the Litchfield-Wilcoxon method.

[6] = Experimental asthma with passively sensitized guinea pigs; assay type: in vivo, Hartley male guinea pigs; details: 500 mg/kg oral, individual animals (10 animals)
Method: Hartley male guinea pigs each weighing 300 to 350 g were passively sensitized by intravenous injection with rabbit anti-egg albumin serum (0.5 ml/kg). 24 hours after passive sensitization, the guinea pigs were placed in a chamber for an inhalation test and then subjected to continuous spraying for 900 seconds with a mist of a 2% egg albumin solution. A test sample suspended in 5% gum arabic was orally administered 1 hour prior to the antigen challenge. The preconvulsion time was measured.

Plasmin [7] = biological target: Plasmin (Homo sapiens, UniProt P00747); test: Inhibition of plasmin (TAMe hydrolysis); assay type: biochemical; details: TAMe substrate; read-out: Concentration for 50% inhibition (IC50), plasmin
Method: as §1

[8] = Experimental asthma with actively sensitized guinea pigs; assay type: in vivo, Hartley male guinea pigs; details: individual animals, hydrochloride
Method: The evaluation was also performed in the experimental asthma with actively sensitized guinea pigs as follows: Hartley male guinea pigs each weighing 300 to 350 g were sensitized (by subcutaneous injection into the inguinal region) with an egg albumin solution (1 mg/ml) emulsified with an equal volume of Freund's complete adjuvant (5 mg/kg of body weight). Ten days later, the emulsion was injected subcutaneously into the axilla. On the 26th day after the first sensitization, the animals were subjected to the experiments which were conducted in the same manner as in the passively sensitized animals.

Acute toxicity in mice = details: mouse, in vivo, po
Method: as §3

[9] = Passive cutaneous anaphylaxis; assay type: in vivo; details: rat, 125 mg/kg, p.o., 1 hour prior to antigen; dilution ratio of antigen × 32
Method: Diluted anti-egg albumin (rat anti-egg albumin serum) with saline (0.05 ml) was subcutaneously injected into the back of a rat. 48 hours later, egg albumin and Evans' blue dissolved in saline (egg albumin 10 mg and Evans' blue 5 mg/ml) were intravenously injected into the rat in an amount of 2.5 ml/kg. 45 minutes later, the rat was killed, bled and skined, and the permeated area (mm^2) of the dye was measured. Test samples were administered per os 1 hour prior to antigen injection.

Urokinase = Urokinase (Homo sapiens, UniProt P00749); test: Inhibition of urokinase (AGLMe, chromotropic acid method); assay type: biochemical; details: 60 iu urokinase, 10 mM AGLMe, 37° C., 30 minutes, pH 7.5; read-out: Concentration for 50% inhibition (IC50), urokinase
Method: as §1

Mast cells [10] = test: Effects on histamine release from mast cells induced by compound 48/80; assay type: cell-based; details: Mast cell, read-out: Inhibition of histamine release
Method: After incubation for 20 minutes at 37° C., the suspension was cooled to 4° C., and released histamine was determined as described by Shore et al. All samples examined were recognized to cause no disturbance in the fluorometric assay.

Trypsin = biological target: T1, Trypsin (Bos taurus, UniProt P00760); test: Inhibition of trypsin (TAMe hydrolysis); assay type: biochemical; details: TAMe substrate; read-out: Concentration for 50% inhibition (IC50), trypsin
T1 sequence (P00760 24-246): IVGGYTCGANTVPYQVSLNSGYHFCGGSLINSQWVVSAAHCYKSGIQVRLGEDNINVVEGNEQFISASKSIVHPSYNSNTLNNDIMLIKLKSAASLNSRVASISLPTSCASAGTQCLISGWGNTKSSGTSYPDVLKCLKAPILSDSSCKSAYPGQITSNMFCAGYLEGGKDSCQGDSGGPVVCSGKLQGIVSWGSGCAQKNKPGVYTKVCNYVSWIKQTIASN
Method: as §1

Mast cells [11] = details: Life Sciences 10, 805-812 (1971); Internal Medicine 42(6), 933 (1978); cited from earlier work

Plasma kallikrein, sequence (P03952 20-390 limits assumed, species assumed): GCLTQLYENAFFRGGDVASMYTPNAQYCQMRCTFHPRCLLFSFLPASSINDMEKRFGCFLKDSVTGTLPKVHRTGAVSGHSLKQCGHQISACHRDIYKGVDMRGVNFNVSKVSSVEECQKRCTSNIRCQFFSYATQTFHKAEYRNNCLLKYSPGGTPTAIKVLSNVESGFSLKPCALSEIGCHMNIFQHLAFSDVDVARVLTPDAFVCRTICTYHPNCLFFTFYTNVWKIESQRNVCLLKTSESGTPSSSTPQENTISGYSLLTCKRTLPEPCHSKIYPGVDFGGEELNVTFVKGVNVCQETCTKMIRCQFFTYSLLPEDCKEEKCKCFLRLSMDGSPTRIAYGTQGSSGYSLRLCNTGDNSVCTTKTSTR
Pancreas kallikrein, sequence (P00752 15-246 limits assumed): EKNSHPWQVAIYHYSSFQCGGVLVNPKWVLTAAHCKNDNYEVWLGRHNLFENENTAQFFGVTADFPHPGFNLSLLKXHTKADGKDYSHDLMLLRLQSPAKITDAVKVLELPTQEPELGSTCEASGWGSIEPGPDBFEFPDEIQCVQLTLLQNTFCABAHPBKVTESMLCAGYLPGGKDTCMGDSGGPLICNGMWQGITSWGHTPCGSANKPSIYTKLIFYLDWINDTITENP
Plasmin (Homo sapiens, UniProt P00747), sequence (P00747 97-580 limits assumed, species assumed): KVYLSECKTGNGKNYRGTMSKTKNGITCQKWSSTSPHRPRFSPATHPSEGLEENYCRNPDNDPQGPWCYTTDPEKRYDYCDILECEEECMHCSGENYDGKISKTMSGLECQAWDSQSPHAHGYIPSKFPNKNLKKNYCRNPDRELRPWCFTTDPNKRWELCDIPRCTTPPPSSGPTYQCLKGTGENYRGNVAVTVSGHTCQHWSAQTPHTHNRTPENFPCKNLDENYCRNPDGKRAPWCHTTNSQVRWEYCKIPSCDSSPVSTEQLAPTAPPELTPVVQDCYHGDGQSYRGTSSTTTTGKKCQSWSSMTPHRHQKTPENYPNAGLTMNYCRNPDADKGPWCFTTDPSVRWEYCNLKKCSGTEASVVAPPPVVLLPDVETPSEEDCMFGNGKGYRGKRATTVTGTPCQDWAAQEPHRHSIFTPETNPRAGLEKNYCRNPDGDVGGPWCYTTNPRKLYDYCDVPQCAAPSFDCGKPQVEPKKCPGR

SMILES: N=C(N)NCC1CCC(C(=O)O)CC1 (stereo not shown) [4-guanidinomethylcyclohexanecarboxylic acid]
anti-plasmin effects (Plasmin [1]): slight anti-plasmin effects

SMILES: CC(C)(C)c1ccc(OC(=O)[C@H]2CC[C@H](CNC(=N)N)CC2)cc1 [Compound 2, 4'-t-Butylphenyl trans-4-guanidinomethylcyclohexanecarboxylate hydrochloride]
IC50 (Plasma kallikrein): 150 µM | inhibition at 25 µg/mL (guinea pigs ilea [2]; final conc. 25 μg/ml): 96% | inhibition at 50 µg/mL (guinea pigs ilea [2]; final conc. 50 μg/ml): 100% | inhibition at 25 µg/mL [3]: 64.3% | inhibition at 50 µg/mL [3]: 100% | Survival after 24 hr. (5 mice) ([4]; 100 mg/kg): 2 mice | Survival after 24 hr. (5 mice) ([4]; 250 mg/kg): 2 mice | Survival after 24 hr. (5 mice) ([4]; 500 mg/kg): 4 mice | IC50 (Chymotrypsin): 97 µM | IC50 (Pancreas kallikrein): 62 µM | IC50 (Thrombin): 250 µM | inhibition at 25 µg/mL (guinea pigs ilea [5]): 82% | inhibition at 50 µg/mL (guinea pigs ilea [5]): 96.5% | LD50 at 168 h (Acute toxicity in rats): 10800 mg/kg | LD50 (Acute toxicity in rats; 10080 min, hydrochloride): 11,000 mg/kg | Time to fall down [6]: > 900 s | IC50 (Plasmin [7]): 260 µM | Time to fall down ([8]; 125 mg/kg oral, 125 mg/kg): 699 sec. and > 900 sec. (4×) | Time to fall down ([8]; 250 mg/kg oral, 250 mg/kg): 632 sec. and > 900 sec. (4×) | Time to fall down ([8]; 500 mg/kg oral, 500 mg/kg): 768 sec. and > 900 sec. (4×) | LD50 at 168 h (Acute toxicity in mice): 7300 mg/kg | LD50 (Acute toxicity in mice; 10080 min, hydrochloride): 5400 mg/kg | Inhibition of passive cutaneous anaphylaxis [9]: 91.16% | IC50 (Urokinase): 36 µM | inhibition at 10 µg/mL (Mast cells [10]): 46.7% | IC50 (Trypsin): 170 µM

IC50 (Plasma kallikrein): 300 µM | IC50 (Chymotrypsin): 12 µM | IC50 (Pancreas kallikrein): 90 µM | IC50 (Thrombin): 160 µM | IC50 (Urokinase): 160 µM | IC50 (Trypsin): 390 µM
SMILES: N=C(N)NC[C@H]1CC[C@H](C(=O)Oc2ccccc2Cl)CC1 [Compound 5, 2'-Chlorophenyl trans-4-guanidinomethylcyclohexanecarboxylate hydrochloride]

IC50 (Plasma kallikrein): 300 µM | IC50 (Chymotrypsin): 2.8 µM | IC50 (Pancreas kallikrein): 25 µM | IC50 (Thrombin): 95 µM | IC50 (Urokinase): 31 µM | IC50 (Trypsin): 90 µM
SMILES: N=C(N)NC[C@H]1CC[C@H](C(=O)Oc2ccc([N+](=O)[O-])cc2)CC1 [Compound 15, 4'-Nitrophenyl trans-4-guanidinomethylcyclohexanecarboxylate hydrochloride]

SMILES: O=C(O)c1cc(=O)c2c(OCC(O)COc3cccc4oc(C(=O)O)cc(=O)c34)cccc2o1 [DSCG, Disodium cromoglycate, reference compound]
inhibition at 25 µg/mL (guinea pigs ilea [5]; final conc. 25 μg/ml): 0% | inhibition at 50 µg/mL (guinea pigs ilea [5]; final conc. 50 μg/ml): 0% | inhibitory effects on histamine release from mast cells (Mast cells [11]): has inhibitory effects on histamine release from mast cells | inhibition at 10 µg/mL (Mast cells [10]; 10 μg/ml test compound, compound 48/80 induced): 10%
